Data on four molecules can be found in patent publication US20130123355A1, “Fatty acids and metal ions compositions and uses thereof” (priority 2011, published 2013).

One assay relates to rats. Description: novel-object-location (NOL) tests. It is filed as in vivo. The conditions noted are these: diet. As for the experimental part:
Mg-DHA composition is provided as supplement in standard rat feed. On an average, rats consume about 50 mg/Kg/day of elemental Mg, on a feeding schedule so as to maintain 85% of its free-feeding weight. In the control group, rats are fed either DHA or magnesium citrate (Mg Citrate) supplemented diet on schedule similar to test group. After habituation to the apparatus and pre-training, each rat undergoes 4 trials of standard T-maze test (Shoji et al, J. Vis. Exp. (60), e3300, DOI: 10.3791/3300 (2012)) on day 1 or day 21 of Mg-DHA, Mg Citrate, or DHA feeding. Rats are subject to either forced alternation task or left-right discrimination task. Behaviors in the T-maze apparatus is recorded and statistically analyzed by two way repeated measures analysis of variance. […] In another set of experiments, rats fed with DHA, Mg Citrate, or Mg-DHA for 21 days are subject to novel-object-location (NOL) tests.
Mg-DHA composition is provided as supplement in standard rat feed. On an average, rats consume about 50 mg/Kg/day of elemental Mg, on a feeding schedule so as to maintain 85% of its free-feeding weight. In the control group, rats are fed DHA-LysoPC or Mg Citrate supplemented diet on schedule similar to test group. After habituation to the apparatus and pre-training, each rat undergoes 4 trials of standard T-maze test (Shoji et al, J. Vis. Exp. (60), e3300, DOI: 10.3791/3300 (2012)) on day 1 or day 21 of Mg-DHA-LysoPC, Mg Citrate or DHA-LysoPC feeding. Rats are subjected to either forced alternation task or left-right discrimination task. Behaviors in the T-maze apparatus is recorded and statistically analyzed by two way repeated measures analysis of variance. […] In another set of experiments, rats fed with Mg Citrate, DHA-LysoPC, or Mg-DHA-LysoPC for 21 days are subjected to novel-object-location (NOL) tests.
Mg-EPA composition is provided as supplement in standard rat feed. On an average, rats consume about 50 mg/Kg/day of elemental Mg, on a feeding schedule so as to maintain 85% of its free-feeding weight. In the control group, rats are fed EPA or Mg Citrate supplemented diet on scheduled similar to test group. After habituation to the apparatus and pre-training, each rat undergoes 4 trials of standard T-maze test (Shoji et al, J. Vis. Exp. (60), e3300, DOI: 10.3791/3300 (2012)) on day 1 or day 21 of Mg-EPA, Mg Citrate, or EPA feeding. Rats are subjected to either forced alternation task or left-right discrimination task. Behaviors in the T-maze apparatus is recorded and statistically analyzed by two way repeated measures analysis of variance. […]
Zn-DHA composition is provided as supplement in standard rat feed. […] Behaviors in the T-maze apparatus is recorded and statistically analyzed by two way repeated measures analysis of variance. […]

Another assay concerns human subjects. Nature of the assay: Montreal Cognitive Assessment and Mini-Mental State Examination. It is filed as in vivo. As for the experimental part:
Mg-DHA composition is prepared and formulated as capsules to provide a daily dose of 150 mg of elemental magnesium. The human subjects are divided into control and test groups and provided DHA, Mg Citrate (equivalent to 150 mg of elemental magnesium) or Mg-DHA capsules for 30 consecutive days. On day 1 and day 30, two cognitive tests, Montreal Cognitive Assessment and Mini-Mental State Examination (Int J Geriatr Psychiatry. 2010 February; 25(2):111-20) are administered.
Mg-DHA-LysoPC composition is prepared and formulated as capsules to provide a daily dose of 150 mg of elemental magnesium. The human subjects are divided into control and test groups and provided either DHA-LysoPC, Mg Citrate (equivalent to 150 mg of elemental magnesium), Mg-DHA-LysoPC capsules for 30 consecutive days. On day 1 and day 30, two cognitive tests, Montreal Cognitive Assessment and Mini-Mental State Examination (Int J Geriatr Psychiatry. 2010 February; 25(2):111-20) are administered.
Mg-EPA composition is prepared and formulated as capsules to provide a daily dose of 150 mg of elemental magnesium. The human subjects are divided into control and test groups and provided EPA, Mg Citrate (equivalent to 150 mg elemental magnesium), or Mg-EPA capsules for 30 consecutive days. On day 1 and day 30, two cognitive tests, Montreal Cognitive Assessment and Mini-Mental State Examination (Int J Geriatr Psychiatry. 2010 February; 25(2):111-20) are administered.
Zn-DHA or zinc gluconate composition is prepared and formulated as capsules to provide 30 mg of elemental zinc. The human subjects are divided into control and test groups and provided DHA, zinc gluconate, or Zn-DHA capsules, 3 times a day for 30 consecutive days. On day 1 and day 30, two cognitive tests, Montreal Cognitive Assessment and Mini-Mental State Examination (Int J Geriatr Psychiatry. 2010 February; 25(2):111-20) are administered.
Zn-DHA or zinc gluconate composition is prepared and formulated as capsules to provide 30 mg of elemental zinc. The human subjects are divided into control and test groups and provided DHA-LysoPC, zinc gluconate, or Zn-DHA-LysoPC capsules, 3 times a day for 30 consecutive days. On day 1 and day 30, two cognitive tests, Montreal Cognitive Assessment and Mini-Mental State Examination (Int J Geriatr Psychiatry. 2010 February; 25(2):111-20) are administered.
Zn-DHA or zinc gluconate composition is prepared and formulated as capsules to provide a daily dosage of 30 mg of elemental zinc. The human subjects are divided into control and test groups and provided EPA, zinc gluconate, or Zn-EPA capsules for 30 consecutive days. On day 1 and day 30, two cognitive tests, Montreal Cognitive Assessment and Mini-Mental State Examination (Int J Geriatr Psychiatry. 2010 February; 25(2):111-20) are administered.

[1] abbreviates: about 50 mg/Kg/day elemental Mg for 21 days, compared with the fatty acid alone or Mg Citrate.
Setting [2] is: capsules, 150 mg elemental magnesium daily for 30 days, compared with the fatty acid alone or Mg Citrate.
The mark [3] stands for this setting: about 1 mg/kg/day elemental Zn for 21 days, compared with the fatty acid alone or zinc gluconate.
[4] abbreviates: capsules providing 30 mg elemental zinc, 30 consecutive days, compared with the fatty acid alone or zinc gluconate.

Turning to `CC/C=C\C/C=C\C/C=C\C/C=C\C/C=C\C/C=C\CCC(=O)[O-].CC/C=C\C/C=C\C/C=C\C/C=C\C/C=C\C/C=C\CCC(=O)[O-].[Mg+2]` [Mg-DHA], the “ability to recognize novel objects” value in the assay with rats (setting [1]) was “statistically significant improvement”. Further, in the assay on human subjects (setting [2]), the “cognitive tests (Montreal Cognitive Assessment, Mini-Mental State Examination)” value (“cognitive tests” below) was “statistically significant improvement”.

With `CC/C=C\C/C=C\C/C=C\C/C=C\C/C=C\CCCC(=O)[O-].CC/C=C\C/C=C\C/C=C\C/C=C\C/C=C\CCCC(=O)[O-].[Mg+2]` [Mg-EPA], the “ability to recognize novel objects” value with rats (setting [1]) was “statistically significant improvement”. Moreover, the “cognitive tests” value in the assay with human subjects (setting [2]) is “statistically significant improvement”.

As for `CC/C=C\C/C=C\C/C=C\C/C=C\C/C=C\C/C=C\CCC(=O)[O-].CC/C=C\C/C=C\C/C=C\C/C=C\C/C=C\C/C=C\CCC(=O)[O-].[Zn+2]` [Zn-DHA], the “ability to recognize novel objects” value with rats (setting [3]) was “statistically significant improvement”. In the assay on human subjects (setting [4]), the “cognitive tests” value is listed as “statistically significant improvement”.

For `CC/C=C\C/C=C\C/C=C\C/C=C\C/C=C\CCCC(=O)[O-].CC/C=C\C/C=C\C/C=C\C/C=C\C/C=C\CCCC(=O)[O-].[Zn+2]` [Zn-EPA], the “ability to recognize novel objects” value with rats (setting [3]) is “statistically significant improvement”. For the same molecule, the “cognitive tests” value with human subjects (setting [4]) is listed as “statistically significant improvement”.
